Data: article PMC9070039, “Synthesis and evaluation of antimicrobial activity, cytotoxic and pro-apoptotic effects of novel spiro-4H-pyran derivatives” (RSC Advances, 2019)
Converted amounts (≈) assume the structure as drawn.

Experiments:
S. aureus [1] = test: Disk diffusion antibacterial test; format: cell-based, Staphylococcus aureus; design: key to Inhibition zone (mm) S. aureus: —: inactive at concentration 50 mM; details: for Inhibition zone (mm) S. aureus: disc diffusion test, concentration 50 mM; for Sensitivity of S. aureus to compound: there called agar dilution method
Description: (§1) Antibacterial effects of spiro[indeno[2,1-c]pyridazine-9,4′-pyran]-3′,4-dicarbonitrile derivatives 5a–j were evaluated in vitro by using disk diffusion method against Gram-positive (S. aureus) and Gram negative (E. coli). The diameter of inhibition zone correlates to the sensitivity of a bacterium to an antibacterial agent. […] E. coli was resistant against all compounds tested (Table 2). Tetracycline and DMSO were used as positive control and negative control respectively. Next, the active compounds were analysed using MIC assay to determine the lowest concentration for inhibition. […] It seems due to the difference in structure of bacterial cell wall (i.e., the presence of outer membrane with lipid, lipopolysaccharide, and lipoprotein content in Gram negative bacteria), E. coli was resistant against the related synthetic compounds.
(§2) Antibacterial activity of the prepared synthetic compounds against the Gram-negative bacteria (E. coli; ATCC: 15922) and the Gram-positive bacteria (S. aureus; PTCC: 1112, International no. ATCC6538P) were examined by disk diffusion assay. Bacterial cultures were obtained from Persian Type Culture Collection, Tehran, Iran (PTCC). Isolated pure colonies from fresh grown bacteria were transferred from the plates into sterile normal saline solution and it was vortexed to form bacterial homogenous suspensions. The turbidity was then adjusted to 0.5 McFarland standard units, and the suspensions were poured over Mueller–Hinton agar (MHA) plates. Sterile filter paper disks were placed over these plates. The sterile disks were impregnated with the tested compounds. Positive control (tetracycline) and negative control ([…]) were used. To determine MIC, the concentrations of tested substance were prepared within the range from 30–5 mM. Incubate in incubator at 37 °C in 24 h for bacteria (Table 2).

E. coli = test: Disk diffusion antibacterial test; format: cell-based, Escherichia coli; design: key: —: inactive at concentration 50 mM; details: disc diffusion test, concentration 50 mM
Description: as §1, §2

A375 cells = test: MTT cytotoxicity assay; format: cell-based; details: Homo sapiens, A-375, 48 h
Description: (§3) At first, in order to compare anti-cancer properties, the synthesized compounds 5a–j were evaluated against A549 cells, MCF-7 cells, A375 cells, PC3 cells, LNCaP cells and HDF cells lines using the MTT colorimetric assay. The activity is expressed as 50% growth inhibitory concentration (IC50) values at 48 h. We used DMSO (1%) as negative control and Etoposide as positive control.
(§4) Human non-small-cell lung cancer A549 cells, human breast cancer MCF-7 cells, human malignant melanoma cells (A375), human prostate cancer cells (PC3 cells, LNCaP cells) and normal cells HDF (human dermal fibroblast) were received from Pasture Institute, Tehran, Iran. MCF-7 cells were grown in RPMI 1640 medium, A549 cells, A375 cells, PC3 cells, LNCaP cells and HDF cells were grown in DMEM medium. All media contain 10% fetal bovine serum (FBS), penicillin G, streptomycin 100 μg mL^−1 and 1% L-glutamine. The cells were cultured and incubated under humidified 5% CO2 atmosphere at 37 °C.
(§5) The effect of compounds treatment on the viability of cancer cell lines was measured by (3-(4,5-dimethylthiazol-2-yl)-2,5-diphenyl tetrazolium bromide or MTT) assay (MTT assay kit, Bio IDEA, CatNo: BI1017, Iran) based on the ability of live cells to cleave the tetrazolium ring to a molecule that absorb at […] as per the manufacturer's instructions.[33] Etoposide (was kindly provided by Dr A. Foroumadi, Tehran medical Science University, Iran) and dimethyl sulfoxide (or DMSO) was used as positive and negative controls, respectively.[34] Briefly, cells were plated in 96-well culture plates (5 × 10^3 cells per well). After 24 h incubation, the cells were treated with different concentrations of the compounds. After 48 h at 37 °C, the medium was removed and 100 μL of MTT reagent (1 mg mL^−1) was added to each well, and cells were further incubated at 37 °C for 4 h. The MTT solution was removed, 50 μL of DMSO was added to each well to dissolve formazan crystals, and the plates were gently shaken for 10 minutes, followed by reading with an ELISA plate reader (BiotekELx 800, USA). The 50% inhibition concentration (IC50) was defined as the concentration that inhibited cell proliferation by 50% when compared to DMSO treated cells (as negative control).

A549 cells = test: MTT cytotoxicity assay; format: cell-based; details: Homo sapiens, 48 h
Description: as §3, §4, §5

HDF cells = test: MTT cytotoxicity assay; format: cell-based; details: 48 h, normal cells (human dermal fibroblast)
Description: as §3, §4, §5

LNCaP cells = test: MTT cytotoxicity assay; format: cell-based; details: Homo sapiens, 48 h
Description: as §3, §4, §5

MCF-7 cells = test: MTT cytotoxicity assay; format: cell-based; details: Homo sapiens, MCF7, 48 h
Description: as §3, §4, §5

PC3 cells = test: MTT cytotoxicity assay; format: cell-based; details: Homo sapiens, PC-3, 48 h
Description: as §3, §4, §5

S. aureus [2] = test: MIC determination; format: cell-based; details: Staphylococcus aureus; read-out: MICs (mM) S. aureus
Description: as §1, §2

melting point | MIC (S. aureus [2]) | SMILES | Inhibition zone (mm) S. aureus (S. aureus [1]) | Inhibition zone (mm) E. coli (E. coli) | IC50 (A375 cells) | IC50 (A549 cells) | IC50 (HDF cells) | IC50 (LNCaP cells) | IC50 (MCF-7 cells) | IC50 (PC3 cells) | Sensitivity of S. aureus to compound (S. aureus [1])
298 to 300 °C |  | N#CC1=C(N)OC2=C(C(=O)c3ccccc32)C12c1ccccc1-c1c2n[nH]c(=O)c1C#N (centres unmarked) [5j, 2-Amino-3′,5-dioxo-2′,3′-dihydro-5H-spiro[indeno[1,2-b]pyran-4,9′-indeno[2,1-c]pyridazine]-3,4′-dicarbonitrile] | — | — | > 100 µM | > 100 µM | > 100 µM | > 100 µM | > 100 µM | > 100 µM | 
305 to 307 °C | 50 mM (≈ 20800 µg/mL) | N#CC1=C(N)Oc2[nH]c(=S)[nH]c(=O)c2C12c1ccccc1-c1c2n[nH]c(=O)c1C#N (centres unmarked) [5c, 7′-Amino-3,4′-dioxo-2′-thioxo-1′,2,2′,3,3′,4′-hexahydrospiro[indeno[2,1-c]pyridazine-9,5′-pyrano[2,3-d]pyrimidine]-4,6′-dicarbonitrile] |  | — | > 100 µM | > 100 µM | > 100 µM | > 100 µM | > 100 µM | > 100 µM | sensitive
315 to 318 °C |  | CC1(C)CC(=O)C2=C(C1)OC(N)=C(C#N)C21c2ccccc2-c2c1n[nH]c(=O)c2C#N (centres unmarked) [5d, 2-Amino-7,7-dimethyl-3′,5-dioxo-2′,3′,5,6,7,8-hexahydrospiro[chromene-4,9′-indeno[2,1-c]pyridazine]-3,4′-dicarbonitrile] | — | — | > 100 µM | > 100 µM | > 100 µM | > 100 µM | > 100 µM | > 100 µM | 
 |  | COC(=O)c1nn(-c2ccccc2)c2c1C1(C(C#N)=C(N)O2)c2ccccc2-c2c1n[nH]c(=O)c2C#N (centres unmarked) [5h, Methyl 6′-amino-4,5′-dicyano-3-oxo-1′-phenyl-2,3-dihydro-1′H-spiro[indeno[2,1-c]pyridazine-9,4′-pyrano[2,3-c]pyrazole]-3′-carboxylate] | — | — | > 100 µM | > 100 µM | > 100 µM | > 100 µM | > 100 µM | > 100 µM | 
 |  | COc1cc([C@@H]2c3cc4c(cc3[C@@H](O[C@@H]3O[C@@H]5CO[C@@H](C)O[C@H]5[C@H](O)[C@H]3O)[C@H]3COC(=O)[C@H]23)OCO4)cc(OC)c1O [Etoposide, reference compound] |  |  | 25.31 ± 0.018 µM | 60 ± 0.015 µM | > 100 µM | 90 ± 0.031 µM | 30 ± 0.011 µM | 40 ± 0.062 µM | 
308 to 310 °C | 5 mM (≈ 2170 µg/mL) | N#CC1=C(N)Oc2c(c(=O)oc3ccccc23)C12c1ccccc1-c1c2n[nH]c(=O)c1C#N (centres unmarked) [5i, 2′-Amino-3,5′-dioxo-2,3-dihydro-5′H-spiro[indeno[2,1-c]pyridazine-9,4′-pyrano[3,2-c]chromene]-3′,4-dicarbonitrile] |  | — | > 100 µM | > 100 µM | > 100 µM | > 100 µM | > 100 µM | > 100 µM | sensitive
 | 5 mM (≈ 1850 µg/mL) | Cc1n[nH]c2c1C1(C(C#N)=C(N)O2)c2ccccc2-c2c1n[nH]c(=O)c2C#N (centres unmarked) [5f, 6′-Amino-3′-methyl-3-oxo-2,3-dihydro-1′H-spiro[indeno[2,1-c]pyridazine-9,4′-pyrano[2,3-c]pyrazole]-4,5′-dicarbonitrile] |  | — | > 100 µM | > 100 µM | > 100 µM | > 100 µM | > 100 µM | > 100 µM | sensitive
 | 10 mM (≈ 4450 µg/mL) | Cc1nn(-c2ccccc2)c2c1C1(C(C#N)=C(N)O2)c2ccccc2-c2c1n[nH]c(=O)c2C#N (centres unmarked) [5e, 6′-Amino-3′-methyl-3-oxo-1′-phenyl-2,3-dihydro-1′H-spiro[indeno[2,1-c]pyridazine-9,4′-pyrano[2,3-c]pyrazole]-4,5′-dicarbonitrile] |  | — | > 100 µM | > 100 µM | > 100 µM | > 100 µM | > 100 µM | > 100 µM | sensitive
322 to 324 °C | 5 mM (≈ 2000 µg/mL) | N#CC1=C(N)Oc2[nH]c(=O)[nH]c(=O)c2C12c1ccccc1-c1c2n[nH]c(=O)c1C#N (centres unmarked) [5b, 7′-Amino-2′,3,4′-trioxo-1′,2,2′,3,3′,4′-hexahydrospiro[indeno[2,1-c]pyridazine-9,5′-pyrano[2,3-d]pyrimidine]-4,6′-dicarbonitrile] |  | — | > 100 µM | > 100 µM | > 100 µM | > 100 µM | > 100 µM | > 100 µM | sensitive
 | 5 mM (≈ 2400 µg/mL) | Cc1nn(-c2cccc(Cl)c2)c2c1C1(C(C#N)=C(N)O2)c2ccccc2-c2c1n[nH]c(=O)c2C#N (centres unmarked) [5g, 6′-Amino-1′-(3-chlorophenyl)-3′-methyl-3-oxo-2,3-dihydro-1′H-spiro[indeno[2,1-c]pyridazine-9,4′-pyrano[2,3-c]pyrazole]-4,5′-dicarbonitrile] |  | — | > 100 µM | > 100 µM | > 100 µM | > 100 µM | > 100 µM | > 100 µM | sensitive
